Key:
[1] = human, microsomes, 0 h, 1 μM, pH 7.4
[2] = Brain distribution under steady state (Kp,uu); type: in vivo, rat
[3] = Pharmacokinetics in portal and jugular vein double cannulated rats; conditions: double cannulation rat model, if F a is 100%
Description: The surgical procedure for portal vein catheter insertion was performed according to reference ([Matsuda et al., 2012]). Male SD rats (250–280 g) were purchased from Beijing Vital River Laboratory Animal Technology Co., Ltd. (Beijing, China). Rats were anesthetized with 2% pentobarbital sodium (0.2–0.3 mg/100 g) intraperitoneally dosed. Cannulation into the jugular vein was performed by the method of Murakami reported ([Murakami et al., 2003]) with minor modification. Briefly, an incision of ∼0.5 cm near right clavicle was made and the jugular vein was exposed. Next, this vein was cannulated with ∼12.5 cm of silicone gel tubing (0.6 mm I.D. × 0.9 mm O.D., Skillsmodel Inc., Beijing, China). The other side of the tubing was passed through the back skin. 2.5 cm midline incision was made in the abdominal cavity close to ensiform process and the portal vein was detached. To prevent bleeding, the portal vein was ligated temporarily as the catheter was inserted. The silicone tubing (22 cm, 0.6 mm I.D. × 0.9 mm O.D., Skillsmodel Inc., Beijing, China) was inserted immediately and fixed by a purse-string suture on the portal vein. The time to reperfusion was about 1 min after intercepted blood flow. In addition, a catheter with trumpet-shaped opening was used to prevent the catheter from slipping out of the vessel and minimize the effect on blood flow. Another end of the catheter was passed subcutaneously to the skin close to the scapula.
Blood samples were collected at 0, 0.083, 0.25, 0.5, 1, 2, 4, 6, 8 and 12 h. Blood (approximately 100 µl) was collected from the jugular and portal veins into tubes containing heparin on ice and centrifuged within 1 h of collection. Plasma was harvested and stored at −20°C for bioanalysis.
FaFg was calculated using mass balance method and rat portal blood flow (Qpv) of 32 ml/min/kg, where Rb/p is used to convert plasma concentrations to blood concentrations.

[4] = Stability of YL-IPA08 in rat plasma (LC-MS/MS validation); type: in vitro ADME
Description: The quantification of YL-IPA08 in rat plasma was fully validated, and in vitro samples were particularly validated by selectivity, precision, and stability. The calibration curves of YL-IPA08 in rat plasma and in vitro incubates ranged in the concentrations of 0.5–500 ng/ml and 1–1,000 nM, respectively. The intra-day precision and inter-day precision […] were less than 15% at QC concentrations (full methodology validation results were presented in Supplementary Tables S1–S3).

[5] = in vitro; conditions: human, microsomes, pH 7.4
[6] = in vitro; conditions: rat; for fraction unbound at 4 h, 1 µM: plasma
Description: The fraction of unbound YL-IPA08 in plasma and liver microsomes of rat and human, and brain homogenates of rat were determined utilizing Rapid Equilibrium Dialysis method ([Waters et al., 2008]). Rat brain homogenate was harvested in 4-fold volume (w/v) of PBS (pH 7.4). YL-IPA08 were spiked into fresh plasma, rat brain homogenate, liver microsomes (0.2 mg/ml protein) at concentration of 1 µM, and then dialyzed against […] on a shaker at 37°C for 4 h. To avoid the high non-specific binding of YL-IPA08, 0.01% Tween 80 was added in the incubation mixture. At the end of the incubation, protein was precipitated with acetonitrile (containing IS) and analyzed by LC-MS/MS. Phenacetin, quinidine, and warfarin were selected as positive control for the protein binding test.
The unbound fraction of YL-IPA08 in plasma or liver microsomes (ƒu,x) was calculated as shown in Eq. 2, and unbound fraction in the tissue homogenate (ƒu,b) was calculated according to Eq. 3. fu,x = Concbuffer chamber/Concplasma/liver microsomes chamber (2) fu,b = Concbuffer chamber/Concbrain homogenate chamber (3) The measured unbound fractions would be higher when a tissue is homogenized and diluted in buffer, the unbound fractions in an undiluted tissues (ƒu,brain) were calculated using Eq. 4 ([Kalvass and Maurer, 2002]). Undiluted fu,brain=1/D/((1/fu,brain homogenate)−1)+1/D (4) Where D represents the fold of dilution factor in brain homogenates. The free fraction of plasma and undiluted tissue is used in tissue-to-plasma exposure ratio calculation.

[7] = Freeze-thaw three cycles, HQC (400ng/ml)
[8] = Freeze-thaw three cycles, LQC (1ng/ml)
[9] = Freeze-thaw three cycles, MQC (20ng/ml)
[10] = In auto-sample for 24 h, HQC (400ng/ml)
[11] = In auto-sample for 24 h, LQC (1ng/ml)
[12] = In auto-sample for 24 h, MQC (20ng/ml)
[13] = Room temperature for 24 h, HQC (400ng/ml)
[14] = Room temperature for 24 h, LQC (1ng/ml)
[15] = Room temperature for 24 h, MQC (20ng/ml)

For `CCN(Cc1ccccn1)C(=O)Cc1c(-c2ccc(Cl)c(Cl)c2)nc2cc(C)ccn12` [YL-IPA08], the percent of remaining [1] was 100.00%, the “unbound concentration in rat brain” value ([2]; estimated based on K p,uu) was 6.5 pg/mL and the “unbound concentration in brain” value ([2]; rats, after 1 mg/kg oral dosing, estimated from plasma concentrations and K p,uu) was 6.5 pg/g. The “extraction of gut metabolism” value [3] was 78%, the Accuracy ([4]; 4℃ for 24 h, HQC (400ng/ml)) was 99.8±8.0% and the Measured value ([4]; 4℃ for 24 h, HQC (400ng/ml)) was 399.00 ± 31.76 ng/mL. The Accuracy ([4]; 4℃ for 24 h, LQC (1ng/ml)) was 113.0±9.0%, the Measured value ([4]; 4℃ for 24 h, LQC (1ng/ml)) was 1.13 ± 0.09 ng/mL and the Accuracy ([4]; 4℃ for 24 h, MQC (20ng/ml)) was 108.7±5.3%. It also gave a Measured value ([4]; 4℃ for 24 h, MQC (20ng/ml)) of 21.73 ± 1.07 ng/mL, an Accuracy ([4]; -40℃ for 7 d, HQC (400ng/ml)) of 105.1±8.5% and a Measured value ([4]; -40℃ for 7 d, HQC (400ng/ml)) of 420.33 ± 33.84 ng/mL. The Accuracy ([4]; -40℃ for 7 d, LQC (1ng/ml)) was 105.0±6.0%, the Measured value ([4]; -40℃ for 7 d, LQC (1ng/ml)) was 1.05 ± 0.06 ng/mL and the Accuracy ([4]; -40℃ for 7 d, MQC (20ng/ml)) was 105.0±4.1%. The Measured value ([4]; -40℃ for 7 d, MQC (20ng/ml)) was 21.00 ± 0.82 ng/mL, the Accuracy [4, 7] was 96.8±2.6% and the Measured value [4, 7] was 387.33 ± 10.21 ng/mL. For the same compound, the Accuracy [4, 8] was 114.0±5.0%, the Measured value [4, 8] was 1.14 ± 0.05 ng/mL and the Accuracy [4, 9] was 103.0±1.8%. The Measured value [4, 9] was 20.60 ± 0.36 ng/mL, the Accuracy [4, 10] was 98.6±3.0% and the Measured value [4, 10] was 394.33 ± 12.06 ng/mL. It also gave an Accuracy [4, 11] of 95.0±2.0%, a Measured value [4, 11] of 0.95 ± 0.02 ng/mL and an Accuracy [4, 12] of 100.4±1.2%. For the same compound, the Measured value [4, 12] was 20.07 ± 0.25 ng/mL, the Accuracy [4, 13] was 102.5±1.4% and the Measured value [4, 13] was 410.00 ± 5.57 ng/mL. It also gave an Accuracy [4, 14] of 110.0±8.0%, a Measured value [4, 14] of 1.10 ± 0.08 ng/mL and an Accuracy [4, 15] of 112.5±4.1%. The Measured value [4, 15] was 22.50 ± 0.82 ng/mL, the microsomal CLint at 1 μM [5] was 200 ± 30 µL/min/mg and the “Concentration, Cbuffer chamber” value ([6]; 4 h, 1 µM) was 5.44 ± 0.33 nM. For the same compound, the “Concentration, Cplasma/microsome chamber” value ([6]; 4 h, 1 µM) was 872.67 ± 32.52 nM, the “Protein biding (%)” value ([6]; 4 h, 1 µM) was 99.40 ± 0.01% and the fraction unbound at 4 h, 1 µM [6] was about 0.01. The fraction unbound at 4 h, 1 µM ([6]; Unbound fraction) was 0.006.
